{"source": "patent US20100166804A1", "about": "“METHODS” (priority 2007, published 2010)", "key": {"[1]": {"test_system": "patients with a history of peanut allergy", "experiment": "Double-blind randomized oral food challenge with peanut flour (Example 1)", "assay_type": "in vivo", "details": "1 mg ketotifen orally twice daily vs placebo; oral food challenge at two, four and six weeks", "procedure": "(§1) To analyze hypersensitivity to an allergen, e.g., peanut, a double-blind, randomized, dose-ranging study is carried out with patients with a history of peanut allergy manifested by urticaria, angioedema, respiratory tract symptoms or hypotension generally using the methods described in Israel et al., Am. J. Respir. Crit. Care Med., (2000) 164:75-80. Eligible patients include those with serum total IgE level of 30-1000 IU/mL and/or a positive skin-prick test to peanut. Patients must have asthma condition under control with a forced expiratory volume in one second that is at least 80 percent of the predicted value. Patients may not have taken systemic corticosteroids, beta-blockers, acetylcholinesterase, aspirin, antihistamines and anti-depressants prior to and throughout the study.\nBefore enrollment, threshold level for reactivity to peanut allergen is confirmed by a screening double-blind, placebo-controlled oral food challenge. […] Vital signs are checked, chest auscultation is performed, and peak expiratory flow rates are monitored every 30 minutes during the food challenge and for at least 2 hours after the last dose or the abatement of any symptoms or signs. […]\n(§2) Peak expiratory flow rates are monitored every 30 minutes during food challenge for at least 2 hours after the last does or abatement of any symptoms or signs. […]"}, "[2]": {"test_system": "patients with a history of peanut allergy", "experiment": "Double-blind randomized dose-ranging oral food challenge with peanut flour (Example 3)", "assay_type": "in vivo", "details": "0.5, 1 or 2 mg ketotifen orally twice daily vs placebo; oral food challenge at two, four and six weeks", "procedure": "as §1, with “to” for “to an allergen, e.g.,”, “take” for “have taken”, “during” for “prior to and throughout”\nBefore enrollment, threshold level for reactivity to peanut allergen is confirmed by a screening double-blind, placebo-controlled oral food challenge. Base line spirometry, peak expiratory flow rates and continuous cardiac monitoring is established. Vital signs are checked, chest auscultation is performed, and peak expiratory flow rates are monitored every 30 minutes during the food challenge and for at least 2 hours after the last dose or the abatement of any symptoms or signs. […]\nas §2"}, "[3]": {"test_system": "patients with a history of bee sting allergy", "experiment": "Double-blind randomized dose-ranging bee venom challenge (Example 4)", "assay_type": "in vivo", "details": "0.5, 1 or 2 mg ketotifen orally twice daily vs placebo; bee venom challenge at two, four and six weeks", "procedure": "as §1, with “bee venom,” for “an allergen, e.g., peanut,”, “bee sting” for “peanut”, “bee venom.” for “peanut.”, “take” for “have taken”, “during” for “prior to and throughout”\nBefore enrollment, threshold level for reactivity to bee venom allergen is confirmed by a screening double-blind, placebo-controlled bee venom challenge. […] Vital signs are checked, chest auscultation is performed, and peak expiratory flow rates are monitored and bee venom specific IgE level and basal tryptase level are measured every 30 minutes during the challenge and for at least 2 hours after the last dose or the abatement of any symptoms or signs. […] The wheal size is evaluated 15 min after application. […] Patients are closely monitored for any systemic reaction. […]"}, "[4]": {"test_system": "subjects with an allergy to peanut", "experiment": "Oral peanut tolerization therapy with concomitant ketotifen fumarate, randomized double-blind placebo-controlled (Example 5)", "assay_type": "in vivo, patients", "procedure": "A study is performed to evaluate the dose-related effects of ketotifen fumarate on the scope and severity of allergic signs and symptoms resulting from concomitant oral peanut tolerization therapy. The study also evaluates the effects of discontinuation of ketotifen therapy on the scope and severity of allergic signs and symptoms resulting from concomitant oral peanut tolerization therapy after 12 or 16 weeks, while oral peanut tolerization therapy is continued. The study also evaluates the effects of ketotifen therapy on the scope and severity of allergic signs and symptoms resulting from concomitant oral peanut tolerization therapy when ketotifen dosing is initiated after 12 weeks of oral peanut tolerization therapy. The study generally consists of screening, baseline, treatment, and post-treatment follow-up periods, and is randomized, double-blind, placebo-controlled, and in parallel groups.\nPatients selected are generally healthy subjects between the ages of 2 and 50 with an allergy to peanut which provokes signs and symptoms of an anaphylactic reaction. The patients may also have co-morbid atopic dermatitis and/or allergic rhinitis. If a patient is selected for the study, they are randomly assigned a treatment of 0.5 mg oral ketotifen fumarate, 2.0 mg oral ketotifen fumarate, or placebo (n=12 for each group).\nDuring the treatment period, patients receive ketotifen fumarate or placebo for one week prior to tolerization therapy. At week 1, oral peanut tolerization therapy is begun with peanut flour, and safety evaluations are performed. The oral dose of peanut flour is increased at weeks 3, 5, 7, 9, 11 and 13, and safety evaluations are performed at that time.\nAt week 13, half of the patients in each of the ketotifen groups are switched in a double-blind fashion to placebo, and subjects in the placebo treatment group are switched in a double-blind fashion to receive 2.0 mg oral ketotifen. Patients continue in the study for an additional 4 weeks. At weeks 15 and 17, the peanut flour dose is increased, and safety evaluations are performed. […]"}, "[5]": {"details": "patients initially receiving ketotifen, switched to placebo at week 13, final 4 weeks"}}}
{"smiles": "CN1CCC(=C2c3ccccc3CC(=O)c3sccc32)CC1", "note": "[ketotifen]", "values": [{"measurement": "patients' threshold sensitivity to peanut upon oral ingestion (change from base line in log-transformed threshold dose of peanut flour that induced hypersensitivity)", "setting": "[1]", "value": "significantly increase"}, {"measurement": "patients' tolerance to peanut upon oral ingestion (change from base line in log-transformed threshold dose of peanut flour that induced hypersensitivity)", "setting": "[2]", "value": "significantly increase"}, {"measurement": "patients' tolerance to bee venom (change from base line in log-transformed threshold dose of bee venom that induced hypersensitivity)", "setting": "[3]", "value": "significantly increase"}, {"measurement": "amount of peanut flour that is well-tolerated", "setting": "[4]; 0.5 mg or 2.0 mg oral ketotifen fumarate vs placebo during oral peanut tolerization therapy", "value": "tolerate more peanut flour than patients in the placebo group"}, {"measurement": "escape therapy required, vs patients continuously receiving ketotifen", "setting": "[4]; [5]", "value": "require similar escape therapy"}, {"measurement": "escape therapy required, vs patients continuously receiving the placebo", "setting": "[4]; [5]", "value": "require less escape therapy"}]}
